# Assays:
# [1] = molecular target: T1, acyl-coenzyme A:cholesterol acyltransferase (ACAT) (Oryctolagus cuniculus, UniProt G1SFD9); assay: In vitro ACAT inhibition (radiolabeled cholesterol oleate formation from oleic acid, rabbit intestinal microsomes); assay type: biochemical
# T1 sequence (G1SFD9 1-524): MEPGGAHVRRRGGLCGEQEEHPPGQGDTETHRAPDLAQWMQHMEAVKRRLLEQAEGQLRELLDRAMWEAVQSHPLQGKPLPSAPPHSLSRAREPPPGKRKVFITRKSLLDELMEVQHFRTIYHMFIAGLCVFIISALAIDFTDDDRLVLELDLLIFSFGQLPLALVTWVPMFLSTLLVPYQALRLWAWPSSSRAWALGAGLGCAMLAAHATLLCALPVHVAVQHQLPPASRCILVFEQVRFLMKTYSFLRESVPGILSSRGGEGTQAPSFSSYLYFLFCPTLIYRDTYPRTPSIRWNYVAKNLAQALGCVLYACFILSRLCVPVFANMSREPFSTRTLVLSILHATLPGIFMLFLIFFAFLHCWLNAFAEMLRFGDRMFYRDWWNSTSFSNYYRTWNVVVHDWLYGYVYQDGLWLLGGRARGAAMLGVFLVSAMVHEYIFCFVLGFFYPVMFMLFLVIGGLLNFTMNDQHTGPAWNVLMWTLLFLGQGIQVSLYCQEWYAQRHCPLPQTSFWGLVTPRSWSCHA
# Experimental: The ability of representative compounds of the present invention to inhibit ACAT was measured using an in vitro test more fully described by F. J. Field and R. G. Salone, in Biochemica et Biophysica 712:557-570 (1982). The test assesses the ability of a test compound to inhibit the acylation of cholesterol by oleic acid by measuring the amount of radio-labeled cholesterol oleate formed from radiolabeled oleic acid in a tissue preparation containing rabbit intestinal microsomes.
# [2] = APCC in vivo screen: blood cholesterol in cholesterol-fed rats; parameters: species or system male Sprague-Dawley rats; conditions: Rattus norvegicus, 192 h, oral, chow diet with peanut oil 5.5%, cholesterol 1.5%, cholic acid 0.5%, blood sampled next day 8 AM, read-out: % Change (mg/dl)
# Experimental: In one in vivo screen designated APCC, male Sprague-Dawley rats (200 to 225 g) were randomly divided into treatment groups and dosed orally at 4 PM with either vehicle (CMC/Tween) or suspensions of test compounds in vehicle. The control group received vehicle alone. […] The next day the animals were sacrificed at 8 AM to obtain blood samples for cholesterol analysis using standard procedures. Statistical differences between mean cholesterol values for the same vehicle were determined using analysis of variance followed by Fisher's least significant test. […] The figure in parenthesis indicates the number of milligrams/kilogram of test compound administered.
SMILES,IC50 [1] [nM],change in vivo at 30 mg/kg [2] [%],change in vivo at 3 mg/kg [2] [%]
"CCCCCCCCCCCCCc1cc(NC(=O)Nc2c(C(C)C)cccc2C(C)C)no1 [Example 16, N-[2,6-bis(1-methylethyl)phenyl]-N'-(5-tridecyl-3-isoxazolyl)urea]",,-62,-59
"CCCCCCCCCCCCc1cc(NC(=O)Nc2c(C(C)C)cccc2C(C)C)no1 [Example 9, N-[2,6-bis(1-methylethyl)phenyl]-N'-(5-dodecyl-3-isoxazolyl)urea]",27,-67,-54
"CCCCN(CCCC)Cc1cc(NC(=O)Nc2c(C(C)C)cccc2C(C)C)no1 [Example 19, N-[2,6-bis(1-methylethyl)phenyl]-N'-[5-[(dibutylamino)methyl]-3-isoxazolyl]urea]",510,-50,-33
"CCCCCCCCCCCCCCc1cc(NC(=O)Nc2c(C(C)C)cccc2C(C)C)on1 [Example 13, N-[2,6-bis(1-methylethyl)phenyl]-N'-(3-tetradecyl-5-isoxazolyl)urea]",,-64,-44
CCCCCCCCCCc1cc(NC(=O)Nc2c(C(C)C)cccc2C(C)C)no1 [Example 14],28,-62,-29
"CCCCCCCCCCCCCCc1cc(NC(=O)Nc2c(C(C)C)cccc2C(C)C)no1 [Example 17, N-[2,6-bis(1-methylethyl)phenyl]-N'-(5-tetradecyl-3-isoxazolyl)urea]",110,-58,-47
"CCCCCCCCCCCc1cc(NC(=O)Nc2c(C(C)C)cccc2C(C)C)on1 [Example 11, N-[2,6-bis(1-methylethyl)phenyl]-N'-(3-undecyl-5-isoxazolyl)urea]",20,-70,-67
"CCCCCc1sc(NC(=O)Nc2c(C(C)C)cccc2C(C)C)nc1C [Example 3, N-[2,6-bis(1-methylethyl)phenyl]-N-(5-pentyl-4-methyl-2-thiazolyl)urea]",1900,-17,
"CCCCCCCCCCCCCc1cc(NC(=O)Nc2c(C(C)C)cccc2C(C)C)on1 [Example 12, N-[2,6-bis(1-methylethyl)phenyl]-N'-(3-tridecyl-5-isoxazolyl)urea]",,-62,-51
"CCCCCCCCCCc1cc(NC(=O)Nc2c(C(C)C)cccc2C(C)C)on1 [Example 10, N-[2,6-bis(1-methylethyl)phenyl]-N'-(3-decyl-5-isoxazolyl)urea]",,-69,-61
"CCCCCCCCCCCCc1cc(NC(=O)Nc2c(C(C)C)cccc2C(C)C)on1 [Example 8, N-[2,6-bis(1-methylethyl)phenyl]-N'-(3-dodecyl-5-isoxazolyl)urea]",,-61,-58
"CCCCCCCCCCc1sc(NC(=O)Nc2c(C(C)C)cccc2C(C)C)nc1C [Example 1, N-[2,6-bis(1-methylethyl)phenyl]-N'-(5-decyl-4-methyl-2-thiazolyl)urea]",,-20,

# Now from value to compound, other results behind:
IC50 [1] [nM],SMILES,change in vivo at 30 mg/kg [2] [%],change in vivo at 3 mg/kg [2] [%]
> 1000,"CC(C)c1cccc(C(C)C)c1NC(=O)Nc1nc(C(C)(C)C)cs1 [Example 7, N-[2,6-bis(1-methylethyl)phenyl]-N'-(4-tert-butyl-2-thiazolyl)urea]",,
1600,"CCCCCCc1csc(NC(=O)Nc2c(C(C)C)cccc2C(C)C)n1 [Example 4, N-[2,6-bis(1-methylethyl)phenyl]-N'-(4-hexyl-2-thiazolyl)urea]",4,
2700,"CCCCCCN(CCCCCC)Cc1cc(NC(=O)Nc2c(C(C)C)cccc2C(C)C)no1 [Example 20, N-[2,6-bis(1-methylethyl)phenyl]-N'-[5-[(dihexylamino)methyl]-3-isoxazolyl]urea]",-7,
> 5000,"Cc1csc(NC(=O)Nc2c(C(C)C)cccc2C(C)C)n1 [Example 6, N-[2,6-bis(1-methylethyl)phenyl]-N'-(4-methyl-2-thiazolyl)urea]",,
27,"CCCCCCCCCCCc1cc(NC(=O)Nc2c(C(C)C)cccc2C(C)C)no1 [Example 15, N-[2,6-bis(1-methylethyl)phenyl]-N'-(5-undecyl-3-isoxazolyl)urea]",-61,-51
> 5000,"CC(C)c1cccc(C(C)C)c1NC(=O)Nc1nc(-c2ccccc2)cs1 [Example 5, N-[2,6-bis(1-methylethyl)phenyl]-N'-(4-phenyl-2-thiazolyl)urea]",,
100,"CCCCCCCCCCCCc1cc(NC(=O)Nc2c(C(C)C)cccc2C(C)C)n(-c2ccccn2)n1 [Example 24, N-[2,6-bis(1-methylethyl)phenyl]-N'-[3-dodecyl-1-(2-pyridyl)-1H-pyrazol-5-yl]urea]",9,
> 5000,"Cc1cc(NC(=O)Nc2c(C(C)C)cccc2C(C)C)no1 [Example 18, N-[2,6-bis(1 methylethyl)phenyl]-N'-(5-methyl-3-isoxazolyl)urea]",,
35,"CCCCCCCCCCCn1nccc1NC(=O)Nc1c(C(C)C)cccc1C(C)C [Example 23, N-[2,6-bis(1-methylethyl)phenyl]-N'-(1-undecyl-1H-pyrazol-5-yl)urea]",-64,5
1900,"CCCCN(CCCC)Cc1cc(NC(=O)Nc2c(C(C)C)cccc2C(C)C)n(Cc2ccccc2)n1 [Example 22, N-[2,6-bis(1-methylethyl)phenyl]-N'-[3-[(dibutylamino)methyl]-1-(phenylmethyl)-1H-pyrazol-5-yl]urea]",-9,

# From US5162360A, “2-heteroatom containing urea and thiourea ACAT inhibitors” (Warner-Lambert Company, priority 1991, dated 1992)
